Earlier results as cited in patent publication EP0374097A2, “Use of peptide isosteres as retroviral protease inhibitors” (CIBA-GEIGY AG, priority 1988, dated 1990).

Tested on: gag-Protease von HIV
Conditions: stated as known

Substance: Pepstatin
- Hemmung der gag-Protease von HIV: gehemmt
